Laboratory results taken from ChEMBL document CHEMBL4346765, “Design, synthesis and biological evaluation of novel dithiocarbamate-substituted diphenylaminopyrimidine derivatives as BTK inhibitors” (Bioorg Med Chem, 2019).
Active and inactive are the calls of the source. No cut-off for these calls is given here.

Legend:
[1] = biological target: T1, Tyrosine-protein kinase BTK (Homo sapiens, UniProt Q06187); test: Inhibition of human recombinant full length BTK expressed in baculovirus in Sf9 insect cells using Poly (4:1 Glu, Tyr) as substrate incubated for 1 hr by ADP-Glo assay
[2] = tested on: Ramos; test: Antiproliferative activity against human Ramos cells assessed as reduction in cell growth incubated for 48 hrs by MTS assay
[3] = tested on: Raji; test: Antiproliferative activity against human Raji cells assessed as reduction in cell growth incubated for 48 hrs by MTS assay
[4] = tested on: K562; test: Cytotoxicity against human K562 cells assessed as reduction in cell viability at 0.1 to 40 uM incubated for 48 hrs by MTS assay; type: functional, cell-based; conditions: K562, 48 h
[5] = tested on: KARPAS-299; test: Cytotoxicity against human KARPAS299 cells assessed as reduction in cell viability at 0.1 to 40 uM incubated for 48 hrs by MTS assay; type: functional, cell-based; conditions: KARPAS-299, 48 h
[6] = tested on: Jurkat; test: Cytotoxicity against human Jurkat cells assessed as reduction in cell viability at 0.1 to 40 uM incubated for 48 hrs by MTS assay; type: functional, cell-based
[7] = tested on: MDA-MB-231; test: Cytotoxicity against human MDA-MB-231 cells assessed as reduction in cell viability at 0.1 to 40 uM incubated for 48 hrs by MTS assay; type: functional, cell-based; conditions: MDA-MB-231, 48 h
[8] = tested on: MCF7; test: Cytotoxicity against human MCF7 cells assessed as reduction in cell viability at 0.1 to 40 uM incubated for 48 hrs by MTS assay; type: functional, cell-based; conditions: MCF7, 48 h
[9] = tested on: HepG2; test: Cytotoxicity against human HepG2 cells assessed as reduction in cell viability at 0.1 to 40 uM incubated for 48 hrs by MTS assay; type: functional, cell-based; conditions: HepG2, 48 h
[10] = tested on: 786-0; test: Cytotoxicity against human 786-O cells assessed as reduction in cell viability at 0.1 to 40 uM incubated for 48 hrs by MTS assay; type: functional, cell-based; conditions: 786-0, 48 h
[11] = tested on: HeLa; test: Cytotoxicity against human HeLa cells assessed as reduction in cell viability at 0.1 to 40 uM incubated for 48 hrs by MTS assay; type: functional, cell-based
[12] = tested on: PC-3; test: Cytotoxicity against human PC3 cells assessed as reduction in cell viability at 0.1 to 40 uM incubated for 48 hrs by MTS assay; type: functional, cell-based; conditions: PC-3, 48 h
[13] = tested on: HT-29; test: Cytotoxicity against human HT-29 cells assessed as reduction in cell viability at 0.1 to 40 uM incubated for 48 hrs by MTS assay; type: functional, cell-based; conditions: HT-29, 48 h
[14] = tested on: A549; test: Cytotoxicity against human A549 cells assessed as reduction in cell viability at 0.1 to 40 uM incubated for 48 hrs by MTS assay; type: functional, cell-based; conditions: A549, 48 h
[15] = tested on: NCI-H1299; test: Cytotoxicity against human H1299 cells assessed as reduction in cell viability at 0.1 to 40 uM incubated for 48 hrs by MTS assay; type: functional, cell-based; conditions: NCI-H1299, 48 h
[16] = tested on: NCI-H3122; test: Cytotoxicity against human NCI-H3122 cells assessed as reduction in cell viability at 0.1 to 40 uM incubated for 48 hrs by MTS assay; type: functional, cell-based; conditions: NCI-H3122, 48 h
[17] = tested on: HEF; test: Cytotoxicity against human HEF cells assessed as reduction in cell viability at 0.1 to 40 uM incubated for 48 hrs by MTS assay; type: cell-based
[18] = Cytotoxicity against human HELF cells assessed as reduction in cell viability at 0.1 to 40 uM incubated for 48 hrs by MTS assay; type: cell-based
[19] = tested on: BJ; test: Cytotoxicity against human BJ cells assessed as reduction in cell viability at 0.1 to 40 uM incubated for 48 hrs by MTS assay; type: cell-based
[20] = tested on: MCF-10A; test: Cytotoxicity against human MCF10A cells assessed as reduction in cell viability at 0.1 to 40 uM incubated for 48 hrs by MTS assay; type: cell-based
[21] = tested on: Ramos; test: Antitumor activity in human Ramos cells xenografted in NOD/SCID mouse assessed as reduction in tumor growth at 30 mg/kg/day, ip administered daily for 14 days; type: functional; conditions: 336 h, read-out: TGI
[22] = biological target: T1, Tyrosine-protein kinase BTK; test: Inhibition of BTK in anti-IgM-stimulated human Ramos cells assessed as reduction in PLCgamma2 phosphorylation at Y1217 residues at 10 uM incubated for 4 hrs followed by anti-IgM stimulation for 30 mins by Western blot analysis; type: cell-based

T1 sequence (Q06187 whole entry): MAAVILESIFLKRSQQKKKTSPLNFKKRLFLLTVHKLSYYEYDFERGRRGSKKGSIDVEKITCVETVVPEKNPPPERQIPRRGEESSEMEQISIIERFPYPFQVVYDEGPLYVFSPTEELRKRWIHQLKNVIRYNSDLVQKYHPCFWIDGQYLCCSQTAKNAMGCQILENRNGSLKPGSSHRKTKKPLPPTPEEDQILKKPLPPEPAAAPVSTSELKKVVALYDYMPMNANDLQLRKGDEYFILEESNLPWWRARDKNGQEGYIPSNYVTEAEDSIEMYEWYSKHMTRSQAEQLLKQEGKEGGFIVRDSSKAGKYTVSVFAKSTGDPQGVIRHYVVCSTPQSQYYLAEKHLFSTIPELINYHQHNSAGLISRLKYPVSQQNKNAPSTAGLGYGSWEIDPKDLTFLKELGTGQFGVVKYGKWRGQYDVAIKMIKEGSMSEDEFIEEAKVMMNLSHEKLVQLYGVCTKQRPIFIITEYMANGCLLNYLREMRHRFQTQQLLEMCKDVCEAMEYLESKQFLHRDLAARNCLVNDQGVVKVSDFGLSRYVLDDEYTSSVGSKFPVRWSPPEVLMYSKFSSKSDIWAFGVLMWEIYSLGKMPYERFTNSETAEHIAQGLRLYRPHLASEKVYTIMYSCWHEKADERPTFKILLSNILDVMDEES

Structure (SMILES) | IC50 [1] [nM] | IC50 [2] [nM] | IC50 [3] [nM] | other results
C=CC(=O)Nc1cccc(Nc2nc(Nc3ccc(OCCSC(=S)N4CCN(c5ccccc5)CC4)cc3)ncc2F)c1 | 386 | 20600 | 15000 | 
C=CC(=O)Nc1cccc(Nc2nc(Nc3ccc(OCCSC(=S)N4CCN(CCO)CC4)cc3)ncc2F)c1 | 68.3 | 3740 | 7760 | 
C=CC(=O)Nc1cccc(Nc2nc(Nc3ccc(NC(=O)CCSC(=S)NCc4cccnc4)cc3)ncc2F)c1 | 23.7 | 1220 | 340 | 
C=CC(=O)Nc1cccc(Nc2nc(Nc3ccc(OCCSC(=S)NCc4ccc(C#N)cc4)cc3)ncc2F)c1 | 8.58 | 1030 | 1220 | 
C=CC(=O)Nc1cccc(Nc2nc(Nc3ccc(OCCSC(=S)N4CCN(Cc5ccccc5)CC4)cc3)ncc2F)c1 | 283 | 2070 | > 40000 | 
C=CC(=O)Nc1cccc(Nc2nc(Nc3ccc(OCCSC(=S)NCc4cc(OC)c(OC)c(OC)c4)cc3)ncc2F)c1 | 48.6 | 2250 | 561 | 
C=CC(=O)Nc1cccc(Nc2nc(Nc3ccc(OCCSC(=S)NCc4cnccn4)cc3)ncc2F)c1 | 8.49 | 4420 | 6570 | 
C=CC(=O)Nc1cccc(Nc2nc(Nc3ccc(OCCCCSC(=S)NCc4cccnc4)cc3)ncc2F)c1 | 16.5 | 1490 | 1050 | 
C=CC(=O)Nc1cccc(Nc2nc(Nc3ccc(OCCSC(=S)N4CCc5ccccc5C4)cc3)ncc2F)c1 | > 500 | > 40000 | > 40000 | 
C=CC(=O)Nc1cccc(Nc2nc(Nc3ccc(OCCSC(=S)N4CCN(C(C)C)CC4)cc3)ncc2F)c1 | 56.9 | 1020 | 3930 | 
C=CC(=O)Nc1cccc(Nc2nc(Nc3ccc(OCCSC(=S)NCc4ccncc4)cc3)ncc2F)c1 | 7.36 | 574 | 501 | 
C=CC(=O)Nc1cccc(Nc2nc(Nc3ccc(OCCSC(=S)NC4CCCCC4)cc3)ncc2F)c1 | 115 | 9460 | 9750 | 
C=CC(=O)Nc1cccc(Nc2nc(Nc3ccc(OCCCSC(=S)N4CCN(C(C)C)CC4)cc3)ncc2F)c1 | 63.2 | 1360 | 8250 | 
C=CC(=O)Nc1cccc(Nc2nc(Nc3ccc(OCCOC)cc3)ncc2F)c1 [SPEBRUTINIB] |  | 5440 | 21600 | IC50 [4]: 12600 nM; IC50 [5]: 20300 nM; IC50 [6]: 6700 nM; IC50 [7]: > 40000 nM; IC50 [8]: 29000 nM; IC50 [9]: 33500 nM; IC50 [10]: 14900 nM; IC50 [11]: 17400 nM; IC50 [12]: 22200 nM; IC50 [13]: 18900 nM; IC50 [14]: 1980 nM; IC50 [15]: 38500 nM; IC50 [16]: 32500 nM; IC50 [17]: 22600 nM; IC50 [18]: 16000 nM; IC50 [19]: 27600 nM; IC50 [20]: 4360 nM; inhibition in vivo at 30 mg/kg/day [21]: 28.9%
C=CC(=O)Nc1cccc(Nc2nc(Nc3ccc(OCCSC(=S)NC4CC4)cc3)ncc2F)c1 | 2.5 | 5090 | 6290 | 
C=CC(=O)Nc1cccc(Nc2nc(Nc3ccc(OCCSC(=S)NCC)cc3)ncc2F)c1 | 15 | 3440 | 8640 | 
C=CC(=O)Nc1cccc(Nc2nc(Nc3ccc(OCCSC(=S)NCc4ccc(OC)cc4)cc3)ncc2F)c1 | 5.68 | 3220 | 1280 | 
C=CC(=O)N1CCC[C@@H](n2nc(-c3ccc(Oc4ccccc4)cc3)c3c(N)ncnc32)C1 [IBRUTINIB] |  | 1880 | 17700 | 
C=CC(=O)Nc1cccc(Nc2nc(Nc3ccc(OCCSC(=S)N4CCOCC4)cc3)ncc2F)c1 | 29.9 | 2870 | 4240 | 
C=CC(=O)Nc1cccc(Nc2nc(Nc3ccc(OCCSC(=S)N4CCN(C(C)=O)CC4)cc3)ncc2F)c1 | 80.3 | 2760 | 3530 | 
C=CC(=O)Nc1cccc(Nc2nc(Nc3ccc(OCCSC(=S)N4CCCC4)cc3)ncc2F)c1 | 154 | 2970 | 15300 | 

Structure (SMILES) | IC50 [1] [nM] | IC50 [2] [nM] | IC50 [3] [nM] | other results
C=CC(=O)Nc1cccc(Nc2nc(Nc3ccc(OCCSC(=S)N(CC)CC)cc3)ncc2F)c1 | 23.3 | 3540 | 13700 | 
C=CC(=O)Nc1cccc(Nc2nc(Nc3ccc(OCCCCSC(=S)N4CCN(C(C)C)CC4)cc3)ncc2F)c1 | 131 | 2920 | 4450 | 
C=CC(=O)Nc1cccc(Nc2nc(Nc3ccc(OCCSC(=S)NC)cc3)ncc2F)c1 | 8.21 | 5940 | 7170 | 
C=CC(=O)Nc1cccc(Nc2nc(Nc3ccc(OCCSC(=S)N(CCCC)CCCC)cc3)ncc2F)c1 | 125 | 9210 | 20900 | 
C=CC(=O)Nc1cccc(Nc2nc(Nc3ccc(OCCSC(=S)N(C)C)cc3)ncc2F)c1 | 1.44 | 9530 | 13800 | 
C=CCNC(=S)SCCOc1ccc(Nc2ncc(F)c(Nc3cccc(NC(=O)C=C)c3)n2)cc1 | 91.7 | 4320 | 13300 | 
C=CC(=O)Nc1cccc(Nc2nc(Nc3ccc(OCCSC(=S)NCc4ccccn4)cc3)ncc2F)c1 | 18.5 | 2670 | 10300 | 
C=CC(=O)Nc1cccc(Nc2nc(Nc3ccc(OCCSC(=S)N4CC(C)OC(C)C4)cc3)ncc2F)c1 (stereo not drawn) | 27.1 | 2290 | 6130 | 
C=CC(=O)Nc1cccc(Nc2nc(Nc3ccc(OCCSC(=S)N4CCCCC4)cc3)ncc2F)c1 | 83.6 | 7650 | 13400 | 
C=CC(=O)Nc1cccc(Nc2nc(Nc3ccc(OCCSC(=S)NC(C)C)cc3)ncc2F)c1 | 98.2 | 9310 | 9580 | 
C=CC(=O)Nc1cccc(Nc2nc(Nc3ccc(OCCSC(=S)NCc4ccccc4)cc3)ncc2F)c1 | 10.8 | 1380 | 2220 | 
C=CC(=O)Nc1cccc(Nc2nc(Nc3ccc(OCCCSC(=S)N(C)C)cc3)ncc2F)c1 | 13.9 | 4360 | 4980 | 
C=CC(=O)Nc1cccc(Nc2nc(Nc3ccc(OCCSC(=S)N4CCN(C(=O)OC(C)(C)C)CC4)cc3)ncc2F)c1 | 264 | 14500 | > 40000 | 
C=CC(=O)Nc1cccc(Nc2nc(Nc3ccc(OCCCCSC(=S)N(C)C)cc3)ncc2F)c1 | 35.4 | 15400 | 10200 | 
C=CC(=O)Nc1cccc(Nc2nc(Nc3ccc(OCCSC(=S)N(CCC)CCC)cc3)ncc2F)c1 | 241 | > 40000 | > 40000 | 
C=CC(=O)Nc1cccc(Nc2nc(Nc3ccc(OCCSC(=S)N(C)Cc4cccnc4)cc3)ncc2F)c1 | 30.7 | 2730 | 4840 | 
C=CC(=O)Nc1cccc(Nc2nc(Nc3ccc(OCCCSC(=S)NCc4cccnc4)cc3)ncc2F)c1 | 2.39 | 1420 | 1020 | 
C=CC(=O)Nc1cccc(Nc2nc(Nc3ccc(OCCSC(=S)NCc4cccc(F)c4)cc3)ncc2F)c1 | 6.9 | 1240 | 1150 | 
CCC(=O)Nc1cccc(Nc2nc(Nc3ccc(OCCSC(=S)NCc4cccnc4)cc3)ncc2F)c1 | > 500 | > 40000 | > 40000 | inhibition [22]: inactive
C=CC(=O)Nc1cccc(Nc2nc(Nc3ccc(NC(=O)CSC(=S)NCc4cccnc4)cc3)ncc2F)c1 | 18.4 | 1130 | 310 | 
C=CC(=O)Nc1cccc(Nc2nc(Nc3ccc(OCCSC(=S)N4CCN(C)CC4)cc3)ncc2F)c1 | 35.6 | 1900 | 3900 | 
